Source: patent publication US20060134228A1, “Medicine for prevention of and treatment for amyloidosis” (Nipro Corporation, priority 2002, published 2006)

Biological target: T1, transthyretin purified from human serum (Homo sapiens, UniProt P02766)
T1 construct: Using transthyretin purified from human serum as a transthyretin-containing solution; from tissue; host or cells: human serum
Experiment: Quantitative ratio of transthyretin tetramer and transthyretin monomer (gel separation chromatography, Coomassie stain)
Type: biochemical
Settings: metal chloride 80 μg/mL, transthyretin 0.2 mg/mL, incubated at 37° C.
Protocol: Using transthyretin purified from human serum as a transthyretin-containing solution, the purity thereof was confirmed by electrophoresis. The transthyretin-containing solution (10 mg/mL) was dissolved in a buffer solution to obtain a concentration of 0.2 mg/mL, and chromium chloride (80 μg/mL) was added. The pH of the buffer solution was adjusted to a pH necessary for each experiment using sodium hydroxide or hydrochloric acid. The above-described solution was incubated at 37° C. to produce amyloid fiber.
The transthyretin tetramer and the transthyretin monomer were separated by gel separation chromatography, immersed in the Coomassie Brilliant Blue stain, and examined for color developing intensity. Likewise, measurements were conducted for a comparative example wherein the metal compound added to the solution for incubation was changed from chromium chloride to aluminum chloride, and for a control not formulated with chromium chloride. Also, another test was conducted in the same manner, except that the metal compound added to the solution for incubation was replaced with 80 μg/mL chromium chloride and 80 μg/mL aluminum chloride (chromium chloride and aluminum chloride coexisted). Measurement results of fluorescence intensity and the quantitative ratio of the transthyretin tetramer and the transthyretin monomer are shown in FIG. 1.

Row | Compound | decomposition from the transthyretin tetramer to the transthyretin monomer | decomposition from the transthyretin tetramer to the transthyretin monomer (listed as aluminum)
1 | [Cl][Cr]([Cl])[Cl] [trivalent chromium ion, chromium chloride] | inhibit the reaction of decomposing the transthyretin tetramer to produce the monomer | 
2 | [Cl][Al]([Cl])[Cl] [aluminum ion, aluminum chloride] | promote the reaction of decomposing the transthyretin tetramer to the monomer | promote the decomposition
